Read-outs that look alike come from different tables or passages of the source.
Key:
Format in all cases: physicochemical
[1] = qualitative solubility assessment of the synthesized quinophthalone series dye; conditions: organic solvent or mixture
Source text: In below Table 1, there were qualitative solubility assessment results of the synthesized quinophthalone series dye. […] This means that new design to improve solubility is successful. It was shown that QP3 improving intermolecular steric hindrance by bulk-sized alkyl residue and QP4 increasing affinity to the process solvent, PGMEA, by introducing carboxylate functional group increased its solubility successfully than QP1.

[2] = thermal resistance by Thermo Gravimetric Analyzer (TGA); conditions: high temperature zone over 300° C.
Experimental: Through Thermo Gravimetric Analyzer (TGA), Thermogravimetric Analyzer 2050 (TA instruments), thermal resistance of the synthesized dye was measured (FIG. 3). For the thermal resistance test, change of mass reduction rate (w %) was measured by passing through isothermal section at 220° C. for 30 min, raising the temperature to 30° C.˜400° C. in 10° C./min. In order to apply it as a dye material for LCD color filter, the mass reduction in isothermal zone must be less than 5%. […] In case of QP3 and QP4, it was analyzed that functional groups introduced to improve the solubility gave somewhat reciprocal effects to the thermal resistance of dye. […] It seems that the weight loss is caused by effects of solvents or impurities rather than thermal resistance of dye itself.

[3] = spectroscopic change by temperature and number of PB (Δ Eab)
Experimental: Color simulation was performed according to the condition described in FIG. 15.

[4] = UV-vis absorption spectroscopic analysis of dye; conditions: slope of absorption reduction just prior to 500 nm, absorption after 500 nm
Source text: As QP3 and QP4 increased the molar extinction coefficient further in addition to somewhat bathochromic-shift of λmax, they show very strong and sharp absorption peaks prior to 500 nm. This is very ideal absorption peak for being used as a yellow compensation dye to correct the major green dye.

[5] = solubility to PGMEA in primary color filter application property assessment; conditions: for 1% solubility of dye to PGMEA: 1% in PGMEA
[6] = process solvent PGMEA, read-out: solubility in PGMEA
[7] = solvent CH2Cl2, read-out: solubility in CH2Cl2
[8] = 180° C., first value of PB sequence
[9] = 180° C., second value of PB sequence
[10] = 180° C., third value of PB sequence
[11] = 200° C., first value of PB sequence
[12] = 200° C., second value of PB sequence
[13] = 200° C., third value of PB sequence
[14] = 230° C., first value of PB sequence
[15] = 230° C., second value of PB sequence
[16] = 230° C., third value of PB sequence

Compound	solubility [1, 6]	solubility [1, 7]	thermal resistance in high temperature zone [2]	spectroscopic change by # of PB (Δ Eab) [3, 8]	spectroscopic change by # of PB (Δ Eab) [3, 9]	spectroscopic change by # of PB (Δ Eab) [3, 10]	spectroscopic change by # of PB (Δ Eab) [3, 11]	spectroscopic change by # of PB (Δ Eab) [3, 12]	spectroscopic change by # of PB (Δ Eab) [3, 13]	spectroscopic change by # of PB (Δ Eab) [3, 14]	spectroscopic change by # of PB (Δ Eab) [3, 15]	spectroscopic change by # of PB (Δ Eab) [3, 16]	color property (UV-vis absorption peak) [4]	1% solubility of dye to PGMEA [5]	solubility to PGMEA [5]
CC(C)(C)c1ccc2c(c1)C(=O)/C(=C1\C=Cc3cccc(N4C(=O)c5ccc(C(C)(C)C)cc5C4=O)c3N1)C2=O [QP3]	> 50 mg/mL	> 50 mg/mL	the best thermal resistance property	0.36	1.84	1.98	0.56	2.74	2.77	2.94	9.3	13.4	the most excellent color property	satisfactory level	5-10%
CCOC(=O)c1ccc2c(c1)C(=O)/C(=C1\C=Cc3cccc(N4C(=O)c5ccc(C(=O)OCC)cc5C4=O)c3N1)C2=O [QP4]	> 50 mg/mL	> 50 mg/mL		1.11	1.42	1.59	1.62	2.04	2.37	3.51	6.3	9.36		satisfactory level	5-7%
O=C1c2cccc3cccc(c23)C(=O)N1c1cccc2c1NC(=c1c(=O)c3cccc4cccc(c1=O)c43)C=C2 [QP2]	> 0.5 mg/mL	> 0.5 mg/mL													
O=C1c2ccccc2C(=O)C1c1ccc2cccc(N3C(=O)c4ccccc4C3=O)c2n1 [QP1]	> 5 mg/mL	> 5 mg/mL													
